Tests used:
Androgen receptor [1] = molecular target: T1, Androgen receptor (Homo sapiens, UniProt P10275)
T1 sequence (P10275 whole entry): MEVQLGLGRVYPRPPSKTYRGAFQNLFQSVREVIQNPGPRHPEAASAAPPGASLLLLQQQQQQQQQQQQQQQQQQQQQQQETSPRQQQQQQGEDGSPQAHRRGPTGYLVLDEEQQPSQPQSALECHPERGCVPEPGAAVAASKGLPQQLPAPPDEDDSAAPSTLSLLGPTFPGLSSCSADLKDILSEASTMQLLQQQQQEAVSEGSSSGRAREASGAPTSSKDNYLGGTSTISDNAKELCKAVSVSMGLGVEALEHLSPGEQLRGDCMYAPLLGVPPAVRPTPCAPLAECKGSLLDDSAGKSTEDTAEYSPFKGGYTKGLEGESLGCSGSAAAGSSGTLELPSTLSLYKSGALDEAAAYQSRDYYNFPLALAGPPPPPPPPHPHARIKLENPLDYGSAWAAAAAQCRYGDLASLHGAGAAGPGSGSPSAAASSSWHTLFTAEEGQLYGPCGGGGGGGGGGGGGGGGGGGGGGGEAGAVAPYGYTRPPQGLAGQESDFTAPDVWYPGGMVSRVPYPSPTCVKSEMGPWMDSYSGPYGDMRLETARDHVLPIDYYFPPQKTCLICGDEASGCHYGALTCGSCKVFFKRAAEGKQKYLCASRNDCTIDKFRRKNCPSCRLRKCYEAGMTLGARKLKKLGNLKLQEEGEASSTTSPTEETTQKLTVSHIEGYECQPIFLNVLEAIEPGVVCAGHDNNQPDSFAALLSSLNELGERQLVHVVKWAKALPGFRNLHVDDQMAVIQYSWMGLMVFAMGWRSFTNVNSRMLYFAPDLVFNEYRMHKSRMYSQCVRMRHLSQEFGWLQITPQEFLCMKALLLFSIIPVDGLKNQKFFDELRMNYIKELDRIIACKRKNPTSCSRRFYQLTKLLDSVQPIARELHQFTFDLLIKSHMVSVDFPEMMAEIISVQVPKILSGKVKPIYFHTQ

[2] = molecular target: T2, Progesterone receptor (Homo sapiens) (UniProt P06401); test: (§1) Antagonistic activity against hPR in co-transfected CV-1 cell; type: functional, cell-based
T2 sequence (whole entry): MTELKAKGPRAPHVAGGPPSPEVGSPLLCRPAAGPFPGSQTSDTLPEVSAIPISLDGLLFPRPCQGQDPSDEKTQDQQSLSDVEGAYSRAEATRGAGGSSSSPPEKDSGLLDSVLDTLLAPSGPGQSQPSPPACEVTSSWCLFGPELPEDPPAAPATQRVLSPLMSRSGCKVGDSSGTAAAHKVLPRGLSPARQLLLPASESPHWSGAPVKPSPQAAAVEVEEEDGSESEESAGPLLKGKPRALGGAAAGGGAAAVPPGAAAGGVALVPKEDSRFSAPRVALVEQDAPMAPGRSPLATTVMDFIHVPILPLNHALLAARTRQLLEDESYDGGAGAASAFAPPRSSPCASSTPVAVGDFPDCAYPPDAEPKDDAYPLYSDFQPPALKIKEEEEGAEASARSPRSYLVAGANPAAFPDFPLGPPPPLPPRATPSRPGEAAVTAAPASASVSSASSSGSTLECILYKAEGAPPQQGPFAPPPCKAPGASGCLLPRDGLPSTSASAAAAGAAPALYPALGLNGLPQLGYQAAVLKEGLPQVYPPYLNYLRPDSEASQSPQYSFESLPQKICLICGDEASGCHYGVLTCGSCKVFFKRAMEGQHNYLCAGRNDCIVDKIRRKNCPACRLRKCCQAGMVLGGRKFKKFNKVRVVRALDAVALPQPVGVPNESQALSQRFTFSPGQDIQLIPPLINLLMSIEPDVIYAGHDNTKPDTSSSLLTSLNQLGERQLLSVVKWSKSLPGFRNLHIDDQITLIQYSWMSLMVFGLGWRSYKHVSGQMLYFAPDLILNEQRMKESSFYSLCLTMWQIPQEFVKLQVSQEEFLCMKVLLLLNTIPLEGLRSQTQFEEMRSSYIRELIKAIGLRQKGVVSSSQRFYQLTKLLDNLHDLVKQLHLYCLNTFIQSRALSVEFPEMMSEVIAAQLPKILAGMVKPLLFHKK

[3] = molecular target: T3, Mineralocorticoid receptor (Homo sapiens) (UniProt P08235); test: (§2) Antagonistic activity against hMR in co-transfected CV-1 cell; type: functional, cell-based
T3 sequence (whole entry): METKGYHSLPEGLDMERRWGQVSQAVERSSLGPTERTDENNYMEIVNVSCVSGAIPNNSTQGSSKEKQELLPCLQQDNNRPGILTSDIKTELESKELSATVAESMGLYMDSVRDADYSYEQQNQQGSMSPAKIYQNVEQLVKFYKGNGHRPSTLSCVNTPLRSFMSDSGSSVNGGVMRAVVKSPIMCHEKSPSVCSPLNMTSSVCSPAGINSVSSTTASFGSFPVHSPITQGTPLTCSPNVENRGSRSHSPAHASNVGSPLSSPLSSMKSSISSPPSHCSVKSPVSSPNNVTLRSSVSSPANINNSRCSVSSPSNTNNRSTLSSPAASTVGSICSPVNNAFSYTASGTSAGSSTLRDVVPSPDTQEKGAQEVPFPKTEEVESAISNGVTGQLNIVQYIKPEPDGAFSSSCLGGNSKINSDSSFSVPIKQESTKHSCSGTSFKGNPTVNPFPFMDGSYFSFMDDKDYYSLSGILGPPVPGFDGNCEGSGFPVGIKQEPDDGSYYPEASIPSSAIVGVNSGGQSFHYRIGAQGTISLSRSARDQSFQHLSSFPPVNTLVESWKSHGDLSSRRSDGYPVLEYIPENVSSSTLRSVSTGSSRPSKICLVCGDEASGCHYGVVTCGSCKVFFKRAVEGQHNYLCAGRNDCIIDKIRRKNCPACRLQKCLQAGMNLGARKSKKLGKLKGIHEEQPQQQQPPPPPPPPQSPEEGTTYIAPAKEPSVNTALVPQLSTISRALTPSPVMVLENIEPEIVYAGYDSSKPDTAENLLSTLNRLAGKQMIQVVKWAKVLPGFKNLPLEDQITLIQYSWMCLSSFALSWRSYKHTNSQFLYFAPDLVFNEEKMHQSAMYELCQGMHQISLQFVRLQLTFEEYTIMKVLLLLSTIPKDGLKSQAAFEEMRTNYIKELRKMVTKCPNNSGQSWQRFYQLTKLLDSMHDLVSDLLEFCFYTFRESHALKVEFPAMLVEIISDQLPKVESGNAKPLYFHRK

Androgen receptor [4] = molecular target: T1, Androgen receptor; test: Agonistic activity (EC50) against human androgen receptor (hAR) in co-transfected CV-1 cell; type: functional, cell-based
Androgen receptor [5] = molecular target: T1, Androgen receptor; test: Binding affinity against Androgen receptor transfected into COS cells
Glucocorticoid receptor = molecular target: T4, Glucocorticoid receptor (Homo sapiens, UniProt P04150); test: (§3) Antagonistic activity against Glucocorticoid receptor in co-transfected CV-1 cell; type: functional, cell-based
T4 sequence (P04150 whole entry): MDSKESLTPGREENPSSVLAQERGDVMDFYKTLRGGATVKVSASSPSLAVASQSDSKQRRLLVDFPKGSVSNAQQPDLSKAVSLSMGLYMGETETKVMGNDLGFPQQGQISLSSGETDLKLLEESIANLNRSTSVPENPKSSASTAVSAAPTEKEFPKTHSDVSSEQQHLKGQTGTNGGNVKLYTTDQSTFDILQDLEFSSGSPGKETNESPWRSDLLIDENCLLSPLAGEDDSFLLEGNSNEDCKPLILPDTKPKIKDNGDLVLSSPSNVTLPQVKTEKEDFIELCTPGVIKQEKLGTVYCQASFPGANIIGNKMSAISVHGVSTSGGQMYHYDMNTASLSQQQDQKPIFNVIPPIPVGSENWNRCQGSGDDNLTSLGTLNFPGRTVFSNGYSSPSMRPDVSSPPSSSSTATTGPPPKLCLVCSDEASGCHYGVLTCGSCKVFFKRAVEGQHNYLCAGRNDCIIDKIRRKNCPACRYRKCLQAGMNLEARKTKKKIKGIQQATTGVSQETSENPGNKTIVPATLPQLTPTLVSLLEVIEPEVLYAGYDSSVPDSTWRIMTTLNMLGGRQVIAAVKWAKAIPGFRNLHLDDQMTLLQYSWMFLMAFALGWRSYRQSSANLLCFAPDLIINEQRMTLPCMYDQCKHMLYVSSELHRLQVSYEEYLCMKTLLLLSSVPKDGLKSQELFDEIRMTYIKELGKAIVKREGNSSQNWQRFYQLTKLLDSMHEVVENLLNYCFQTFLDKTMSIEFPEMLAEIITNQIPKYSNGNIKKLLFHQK

[6] = molecular target: T5, Mineralocorticoid receptor (Homo sapiens, UniProt P08235); test: as §2; type: functional, cell-based
T5 sequence (P08235 whole entry): T3 sequence (whole entry)

Estrogen receptor [7] = molecular target: T6, Estrogen receptor (Homo sapiens, UniProt Q92731+P03372); test: (§4) Antagonistic activity against Estrogen receptor in co-transfected CV-1 cell; type: functional, cell-based
[8] = molecular target: T7, Glucocorticoid receptor (Homo sapiens) (UniProt P04150); test: as §3; type: functional, cell-based
T7 sequence (whole entry): T4 sequence (P04150 whole entry)

Estrogen receptor [9] = molecular target: T6, Estrogen receptor; test: as §4; type: functional, cell-based; remark: listed apart in the source
Progesterone receptor = molecular target: T8, Progesterone receptor (Homo sapiens, UniProt P06401); test: as §1; type: functional, cell-based
T8 sequence (P06401 whole entry): T2 sequence (whole entry)

Androgen receptor [10] = molecular target: T1, Androgen receptor; conditions: cv-1
Description: Agonistic activity against human androgen receptor (hAR) in co-transfected CV-1 cell

Androgen receptor [11] = molecular target: T1, Androgen receptor; test: Binding affinity against hAR androgen receptor expressed in COS cells; type: cell-based
Androgen receptor [12] = molecular target: T1, Androgen receptor; test: Antagonistic activity (IC50) against human androgen receptor (hAR) in co-transfected CV-1 cell; type: functional, cell-based

Structure (SMILES)	IC50 (Androgen receptor [1]) [nM]	EC50 (Androgen receptor [4]) [nM]	Ki (Androgen receptor [5]) [nM]	IC50 (Androgen receptor [12])	further results
C[C@@H]1Cc2cc3c(C(F)(F)F)cc(O)nc3cc2N1	7	168	10	–	Efficacy [2]: 89%; Efficacy [3]: < 20%; IC50 (Glucocorticoid receptor): > 10000 nM; IC50 [6]: > 10000 nM; IC50 (Estrogen receptor [7]): > 10000 nM; Efficacy [8]: < 20%; Efficacy (Estrogen receptor [9]): < 20%; IC50 (Progesterone receptor): 750 nM
Cn1c(=O)cc(C(F)(F)F)c2cc3c(cc21)NCC3	56	–	–	–	EC50 (Androgen receptor [10]): Not Active; Ki (Androgen receptor [11]): 61 nM
C[C@@H]1Cc2cc3c(C(F)(F)F)cc(=O)n(C)c3cc2N1	–	20	9	Not Active	–
Oc1cc(C(F)(F)F)c2cc3c(cc2n1)N[C@@H]1CCCC[C@H]31	–	5	5	Not Active	Efficacy [2]: 91%; Efficacy [3]: 54%; IC50 (Glucocorticoid receptor): 5800 nM; IC50 [6]: 2000 nM; IC50 (Estrogen receptor [7]): > 10000 nM; Efficacy [8]: 33%; Efficacy (Estrogen receptor [9]): < 20%; IC50 (Progesterone receptor): 170 nM
CN1c2cc3c(cc2[C@@]2(C)CCCC[C@@H]12)c(C(F)(F)F)cc(=O)n3C	53	–	97	–	EC50 (Androgen receptor [10]): Not Active
CCn1c(=O)cc(C(F)(F)F)c2cc3c(cc21)N[C@@H]1CCCC[C@H]31	230	–	194	–	EC50 (Androgen receptor [10]): Not Active
C[C@H]1CC[C@@H]2[C@H](C1)c1cc3c(C(F)(F)F)cc(=O)n(C)c3cc1N2C	54	–	78	–	EC50 (Androgen receptor [10]): Not Active
C[C@H]1CC[C@H]2Nc3cc4nc(O)cc(C(F)(F)F)c4cc3[C@H]2C1	–	64	23	Not Active	–
C[C@@H]1CNc2cc3nc(O)cc(C(F)(F)F)c3cc21	–	62	17	Not Active	–
C[C@@H]1c2cc3c(C(F)(F)F)cc(=O)n(C)c3cc2N[C@@H]1C	9180	15	10	–	–
C[C@H]1Nc2cc3[nH]c(=O)cc(C(F)(F)F)c3cc2C1(C)C	48	99	21	–	–
C[C@]12CCCC[C@H]1Nc1cc3nc(O)cc(C(F)(F)F)c3cc12	–	–	–	Not Active	Efficacy [2]: 96%; Efficacy [3]: 43%; IC50 (Estrogen receptor [7]): > 10000 nM; Efficacy [8]: 43%; Efficacy (Estrogen receptor [9]): < 20%
CC1(C)CNc2cc3nc(O)cc(C(F)(F)F)c3cc21	10	42	28	–	–
C[C@H]1Nc2cc3c(cc2C1(C)C)c(C(F)(F)F)cc(=O)n3C	22	380	9	–	–
C[C@H]1N(C)c2cc3c(cc2C1(C)C)c(C(F)(F)F)cc(=O)n3C	56	–	33	–	EC50 (Androgen receptor [10]): Not Active
CCCN1c2cc3c(cc2[C@H]2CCCC[C@H]21)c(C(F)(F)F)cc(=O)n3C	27	324	63	–	–
Cn1c(=O)cc(C(F)(F)F)c2cc3c(cc21)N[C@@H]1CCCC[C@]31C	–	33	9	Not Active	–
C[C@]12CCCC[C@H]1Nc1cc3[nH]c(=O)cc(C(F)(F)F)c3cc12	–	25	21	–	IC50 (Glucocorticoid receptor): 2100 nM; IC50 [6]: 1900 nM; IC50 (Progesterone receptor): 730 nM
C[C@@H]1c2cc3c(C(F)(F)F)cc(O)nc3cc2N[C@@H]1C	–	5	6	Not Active	Efficacy [2]: 88%; Efficacy [3]: 29%; IC50 (Glucocorticoid receptor): 2500 nM; IC50 [6]: 2000 nM; IC50 (Estrogen receptor [7]): > 10000 nM; Efficacy [8]: 35%; Efficacy (Estrogen receptor [9]): < 20%; IC50 (Progesterone receptor): 1900 nM
Cn1c(=O)cc(C(F)(F)F)c2cc3c(cc21)N[C@@H]1CCCC[C@H]31	–	10	4	Not Active	Efficacy [2]: 99%; Efficacy [3]: 58%; IC50 (Glucocorticoid receptor): 3000 nM; IC50 [6]: 2900 nM; IC50 (Estrogen receptor [7]): > 10000 nM; Efficacy [8]: 39%; Efficacy (Estrogen receptor [9]): < 20%; IC50 (Progesterone receptor): 150 nM

Reference: ChEMBL document CHEMBL1130772, “New nonsteroidal androgen receptor modulators based on 4-(trifluoromethyl)-2(1H)-pyrrolidino[3,2-g] quinolinone” (Bioorg Med Chem Lett, 1998)
